Measurements from patent EP0630897A2, “3-Hydroxy-4-hydroxymethyl-2-methylene-cyclopentyl purines and pyrimidines” (BRISTOL-MYERS SQUIBB COMPANY, priority 1993, dated 1994).

How the values were obtained:
Format in all cases: cell-based
[1] = system: HSV-1 (herpes simplex virus type 1, strain Schooler); assay: Plaque reduction antiviral assay in WI-38 cell culture, HSV-1; details: Human alphaherpesvirus 1, 96 h; WI-38 monolayers, at least 50% plaque reduction, 4 days incubation at 37°C; read-out: ID50(μM) for the following viruses HSV-1
Method: (§1) Assays were performed in cell culture systems to determine the concentrations of compounds that are effective in preventing several kinds of viral infections. HSV-1 (herpes simplex virus type 1, strain Schooler), HSV-2 (herpes simplex virus type 2, strain 186), VZV (varicella zoster virus, strain ELLEN), HCMV (human cytomegalovirus, strain AD 169). HSV-1, HSV-2, HCMV and VZV antiviral assays: Virus was adsorbed to WI-38 cell culture monolayers in 6 well culture plates (Costar, Cambridge, MA) for 1 hour prior to addition of maintenance medium containing duplicate dilutions of the test compound. Inhibition of plaque development was evaluated on fixed and stained monolayers after 4 days incubation at 37°C. for HSV-1 and HSV-2, and after 5 - 7 days incubation at 37°C. for HCMV and VZV. ID₅₀ values were determined from the drug concentration which conferred at least a 50% plaque reduction compared to virus controls.

[2] = system: HSV-2 (herpes simplex virus type 2, strain 186); assay: Plaque reduction antiviral assay in WI-38 cell culture, HSV-2; details: Human alphaherpesvirus 2, 96 h; WI-38 monolayers, at least 50% plaque reduction, 4 days incubation at 37°C; read-out: ID50(μM) for the following viruses HSV-2
Method: as §1

[3] = system: VZV (varicella zoster virus, strain ELLEN); assay: Plaque reduction antiviral assay in WI-38 cell culture, VZV; details: Human alphaherpesvirus 3; WI-38 monolayers, at least 50% plaque reduction, 5 - 7 days incubation at 37°C; read-out: ID50(μM) for the following viruses VZV
Method: as §1

[4] = system: HCMV (human cytomegalovirus, strain AD 169); assay: Plaque reduction antiviral assay in WI-38 cell culture, HCMV; details: Human betaherpesvirus 5; WI-38 monolayers, at least 50% plaque reduction, 5 - 7 days incubation at 37°C; read-out: ID50(μM) for the following viruses HCMV
Method: as §1

[5] = Visible toxicity to the cell monolayers under the antiviral assay conditions; details: human, wi-38 cells; concentration at which toxicity was visible
Method: HSV-1, HSV-2, HCMV and VZV antiviral assays: Virus was adsorbed to WI-38 cell culture monolayers in 6 well culture plates (Costar, Cambridge, MA) for 1 hour prior to addition of maintenance medium containing duplicate dilutions of the test compound. Inhibition of plaque development was evaluated on fixed and stained monolayers after 4 days incubation at 37°C. for HSV-1 and HSV-2, and after 5 - 7 days incubation at 37°C. for HCMV and VZV. ID₅₀ values were determined from the drug concentration which conferred at least a 50% plaque reduction compared to virus controls.

C=C1C(O)C(CO)CC1n1cc(C)c(=O)[nH]c1=O (stereo not drawn) [Example 3, (1α,3β,4α)-1-[3-Hydroxy-4-(hydroxymethyl)-2-methylenecyclopentyl]-5-methyl-2,4(1H,3H)-pyrimidinedione]
IC50 [1]: 100 to 200 µM
IC50 [2]: > 396 µM
IC50 [3]: 40 µM
IC50 [4]: > 396 µM
MCC [5]: 396 µM

C=C1C(O)C(CO)CC1n1cc(I)c(=O)[nH]c1=O (stereo not drawn) [Example 4, (1α,3β,4α)-1-[3-Hydroxy-4-(hydroxymethyl)-2-methylenecyclopentyl]-5-iodo-2,4(1H,3H)-pyrimidinedione]
IC50 [1]: > 275 µM
IC50 [2]: > 275 µM
IC50 [3]: 275 µM
IC50 [4]: 28 to 275 µM
MCC [5]: 275 µM

C=C1C(O)C(CO)CC1n1cnc2c(=O)[nH]c(N)nc21 (stereo not drawn) [Example 1, (1α,3β,4α)-2-Amino-1,9-dihydro-9-[3-hydroxy-4-(hydroxymethyl)-2-methylenecyclopentyl]-6H-purin-6-one]
IC50 [1]: 4 to 7 µM
IC50 [2]: 7 to 18 µM
IC50 [3]: 7 to 18 µM
IC50 [4]: 7 µM
MCC [5]: 361 µM

C=C1C(O)C(CO)CC1n1cnc2c(N)ncnc21 (stereo not drawn) [Example 2, (1α,2β,4α)-4-(6-Amino-9H-purin-9-yl)-2-hydroxy-3-methylenecyclopentanemethanol]
IC50 [1]: 383 µM
IC50 [2]: 383 µM
IC50 [3]: > 38 µM
IC50 [4]: > 38 µM
MCC [5]: 383 µM

C=C1C(O)C(CO)CC1n1cc(C=CBr)c(=O)[nH]c1=O (stereo not drawn) [Example 5, [1α(E),3β,4α]-5-[2-Bromoethenyl)-1-[3-hydroxy-4-(hydroxymethyl)-2-methylenecyclopentyl]-2,4-(1H,3H)-pyrimidinedione]
IC50 [1]: 291 µM
IC50 [2]: > 291 µM
IC50 [3]: 1.5 to 3 µM
MCC [5]: 291 µM
